Laboratory results as given in US4738971A, “N-aryl-1,2-dihydro-4-substituted-1-alkyl-2-oxo-quinoline-3-carboxamides” (priority 1981, dated 1988).
Counter-ions that a name gives are not always drawn.

How the values were obtained:
[1] = system: carrageenan-induced edema; assay: carrageenan edema test in rats; format: in vivo, rat (female Sprague-Dawley); conditions: for change in vivo at 80 mg/kg: Rattus norvegicus, po, 80 mg/kg p.o., 30 min before carrageenan, edema weight 3 h after, vs control, preliminary, read-out: Potentiation of the carrageenan edema, %; for significant potentiation of the carrageenan edema: dose within the range 10-160 mg/kg p.o.
Text: Another test, in which the effect of a drug corresponds to the effects obtained in the tests mentioned above, and which can therefore also be used, is the well-established carrageenan edema test in rats (5). Comparative evaluation of compounds of the present invention in the three tests mentioned has shown that compounds which increase the extent of the delayed hypersensitivity reaction in the pertussis vaccine pleurisy test and in the adjuvant arthritis test also increase the extent of carrageenan-induced edema in the carrageenan edema test, thus providing a further tool for the determination of enhancement of cell-mediated immunity.
This example illustrates the effect of the compounds of the general formula I in the carrageenan edema test in rats.
A modification of a method described in (5) was used. Female Sprague-Dawleyrats weighing 110-120 g was used. At least 10 animals were used in each experimental group. Foot edema was induced by injecting carrageenan in 0.9% NaCl into the plantar surface of the right hind paw of the rats.
The substances suspended in aqueous methocel solution 10 ml/kg were administered intragastrically 30 minutes before the injection of carrageenan. The control groups were given methocel solution 10 ml/kg.
Three hours after carrageenan injection the animals were killed. The hind feet were cut off and weighed. The difference in weight of the injected right paw and the uninjected left paw was called edema weight.
The effect of the substances was assessed by the edema weight expressed in percent after comparison with the control groups.

[2] = system: delayed hypersensitivity reaction (pertussis vaccine pleurisy); assay: pertussis vaccine pleurisy test in rats; format: in vivo, rat (male Sprague-Dawley); conditions: 10 mg/kg p.o.; for change in vivo at 10 mg/kg: Rattus norvegicus, po, 48 h, once daily day 10 to day 13, vs control, preliminary, read-out: Enhancement of the delayed hypersensitivity reaction assessed by the exudate vol.
Text: A useful test for the evaluation of the effect of chemical compounds on the immune system is the pertussis vaccine pleurisy test in rats. Compounds which enhance the response in this delayed hypersensitivity reaction are considered to stimulate cell-mediated immunity (4).
This example illustrates the effect of the compounds of the general formula I in the pertussis vaccine pleurisy test.
Pertussis vaccine pleurisy is a useful test for the evaluation of the effect of chemical compounds on the immune system. Compounds which enhance the response in this delayed hypersensitivity reaction are considered to stimulate cell-mediated immunity.
A modification of a method described in (4) was used. Male Sprague-Dawley rats weighing 250-275 g were used. At least ten animals were used in each group.
Equal volumes of Freund's incomplete adjuvant and a suspension of heat killed Bordetella pertussis organisms were mixed. To sensitize animals, day 0, 0.2 ml of a mixture containing 0.036×10^10 organisms/ml was injected into the dorsal surface of one hind paw and one forepaw.
The animals were challenged on day 12 with 0.1 ml of a mixture containing 0.25×10^10 organisms/ml that was injected intrapleurally. 48 hours after challenge, day 14, the volume of the exudate in the pleural cavity was measured.
The substances suspended in aqueous methocel solution 10 ml/kg were given intragastrically once daily from day 10 to day 13. The control groups were given methocel solution 10 ml/kg.
The effect of the substances was assessed by the exudate volume expressed in percent after comparison with the control groups.

Row | Structure (SMILES) | change in vivo at 80 mg/kg [1] [%] | change in vivo at 10 mg/kg [2] [%] | significant potentiation of the carrageenan edema [1] | significant enhancing effect in the pertussis vaccine pleurisy test [2]
1 | CN(C)c1ccc2c(c1)c(O)c(C(=O)Nc1ccccc1)c(=O)n2C [1:5, N-phenyl-1,2-dihydro-6-dimethylamino-4-hydroxy-1-methyl-2-oxo-quinoline-3-carboxamide] | 28 | 47 | – | –
2 | Cn1c(=O)c(C(=O)Nc2ccccc2Cl)c(O)c2ccccc21 [1:8, N-/2-chlorophenyl/-1,2-dihydro-4-hydroxy-1-methyl-2-oxo-quinoline-3-carboxamide] | 21 | 27 | – | –
3 | CC(=O)Nc1ccc(NC(=O)c2c(O)c3ccccc3n(C)c2=O)cc1 [1:41, N-(4-acetylaminophenyl)-1,2-dihydro-4-hydroxy-1-methyl-2-oxo-quinoline-3-carboxamide] | – | – | potentiate significantly | significant enhancing effect
4 | COc1c(C(=O)Nc2ccc(N(C)C)cc2)c(=O)n(C)c2ccccc12 [6:3, N-(4-dimethylaminophenyl)-1,2-dihydro-4-methoxy-1-methyl-2-oxo-quinoline-3-carboxamide] | 32 | – | – | –
5 | Cn1c(=O)c(C(=O)Nc2ccccn2)c(O)c2ccccc21 [7:2, N-/2-pyridyl/-1,2-dihydro-4-hydroxy-1-methyl-2-oxo-quinoline-3-carboxamide] | 44 | – | – | –
6 | Cc1csc(NC(=O)c2c(O)c3ccccc3n(C)c2=O)n1 [7:3, N-/2-(4-methyl-thiazolyl)/-1,2-dihydro-4-hydroxy-1-methyl-2-oxo-quinoline-3-carboxamide] | 47 | – | – | –
7 | CCCn1c(=O)c(C(=O)Nc2ccccn2)c(O)c2ccccc21 [7:10, N-/2-pyridyl/-1,2-dihydro-4-hydroxy-2-oxo-1-n-propyl-quinoline-3-carboxamide] | 24 | 41 | – | –
8 | Cn1c(=O)c(C(=O)Nc2ccc(N)cc2)c(O)c2ccccc21 [8:1, N-(4-aminophenyl)-1,2-dihydro-4-hydroxy-1-methyl-2-oxo-quinoline-3-carboxamide] | – | – | potentiate significantly | –
9 | Cn1c(=O)c(C(=O)Nc2ccccc2)c(N)c2ccccc21 [10:1, N-phenyl-4-amino-1,2-dihydro-1-methyl-2-oxo-quinoline-3-carboxamide] | 36 | – | – | –
10 | Cn1c(=N)c(C(=O)Nc2ccccc2)c(O)c2ccccc21 [11:1, N-phenyl-1,2-dihydro-4-hydroxy-2-imino-1-methyl-quinoline-3-carboxamide] | 46 | – | – | –
11 | O=C(Nc1ccc(N2CCCC2)cc1)c1c(O)c2cccc3c2n(c1=O)CC3 [12:7, N-(4-pyrrolidinophenyl)-1,2-dihydro-1,8-ethylene-4-hydroxy-2-oxo-quinoline-3-carboxamide, hydrochloride] | – | – | potentiate significantly | significant enhancing effect
12 | CN(C)c1ccc(NC(=O)c2c(O)c3cccc4c3n(c2=O)CC4)cc1 [12:8, N-(4-dimethylaminophenyl)-1,2-dihydro-1,8-ethylene-4-hydroxy-2-oxo-quinoline-3-carboxamide] | 51 | 29 | – | –
13 | Cc1csc(NC(=O)c2c(O)c3cc(N(C)C)cc4c3n(c2=O)CCC4)n1 [14:7, N-(4-methyl-2-thiazolyl)-1,2-dihydro-6-dimethylamino-4-hydroxy-2-oxo-1,8-trimethylene-quinoline-3-carboxamide] | – | – | potentiate significantly | –
14 | O=C(Nc1cnccn1)c1c(O)c2cccc3c2n(c1=O)CC3 [14:9, N-pyrazinyl-1,2-dihydro-1,8-ethylene-4-hydroxy-2-oxo-quinoline-3-carboxamide] | 21 | – | – | –
15 | O=C(Nc1cccnn1)c1c(O)c2cc(O)cc3c2n(c1=O)CC3 [14:12, N-(3-pyridazinyl)-1,2-dihydro-4,6-dihydroxy-1,8-ethylene-2-oxo-quinoline-3-carboxamide] | – | – | potentiate significantly | –
16 | COc1c(C(=O)Nc2nccs2)c(=O)n2c3c(cccc13)CC2 [16:1, N-(2-thiazolyl)-1,2-dihydro-1,8-ethylene-4-methoxy-2-oxo-quinoline-3-carboxamide] | – | – | potentiate significantly | –
17 | COc1c(C(=O)Nc2nccs2)c(=O)n(C)c2ccccc12 [17:1, N-(2-thiazolyl)-1,2-dihydro-4-methoxy-1-methyl-2-oxo-quinoline-3-carboxamide] | – | – | potentiate significantly | –
18 | COc1c(C(=O)Nc2ccccc2)c(=O)n2c3c(cccc13)CC2 [18:1, N-phenyl-1,2-dihydro-1,8-ethylene-4-methoxy-2-oxo-quinoline-3-carboxamide] | – | – | potentiate significantly | –
19 | COc1c(C(=O)Nc2ccccc2)c(=O)n2c3c(cccc13)CCC2 [18:2, N-phenyl-1,2-dihydro-4-methoxy-2-oxo-1,8-trimethylene-quinoline-3-carboxamide] | – | – | potentiate significantly | –
20 | CCOc1c(C(=O)Nc2ccc(N(C)C)cc2)c(=O)n2c3c(cccc13)CC2 [18:3, N-(4-dimethylaminophenyl)-1,2-dihydro-4-ethoxy-1,8-ethylene-2-oxo-quinoline-3-carboxamide] | – | – | potentiate significantly | –
21 | COc1ccc2c(c1)c(O)c(C(=O)N(C)c1ccccc1)c(=O)n2C [20:5, N-methyl-N-phenyl-1,2-dihydro-4-hydroxy-6-methoxy-1-methyl-2-oxo-quinoline-3-carboxamide] | – | – | potentiate significantly | significant enhancing effect
22 | CN(C(=O)c1c(O)c2ccccc2n(C)c1=O)c1ccc(N2CCCCC2)cc1 [20:9, N-(4-piperidinophenyl)-N-methyl-1,2-dihydro-4-hydroxy-1-methyl-2-oxo-quinoline-3-carboxamide] | – | – | potentiate significantly | significant enhancing effect
23 | CCn1c(=O)c(C(=O)N(C)c2ccccc2)c(O)c2ccccc21 [20:10, N-methyl-N-phenyl-1,2-dihydro-1-ethyl-4-hydroxy-2-oxo-quinoline-3-carboxamide] | – | – | potentiate significantly | significant enhancing effect
24 | CN(C(=O)c1c(O)c2c(F)cccc2n(C)c1=O)c1ccccc1 [20:16, N-methyl-N-phenyl-1,2-dihydro-5-fluoro-4-hydroxy-1-methyl-2-oxo-quinoline-3-carboxamide] | – | – | potentiate significantly | significant enhancing effect
25 | CN(C(=O)c1c(O)c2ccccc2n(C)c1=O)c1ccc2c(c1)OCO2 [20:29, N-methyl-N-(3,4-methylenedioxyphenyl)-1,2-dihydro-4-hydroxy-1-methyl-2-oxo-quinoline-3-carboxamide] | – | – | potentiate significantly | significant enhancing effect
26 | COc1ccc(-n2c(=O)c(C(=O)N(C)c3ccccc3)c(O)c3ccccc32)cc1 [20:34, N-methyl-N-phenyl-1-(4-methoxyphenyl)-1,2-dihydro-4-hydroxy-2-oxo-quinoline-3-carboxamide] | – | – | potentiate significantly | significant enhancing effect
